Data from patent publication US20140378451A1, “Cannabinoid-2-Receptor Agonists” (ISIS INNOVATION LIMITED, priority 2011, published 2014).

Legend:
hCB2R = target: T1, hCB2R (Homo sapiens, UniProt P34972); experiment: cAMP assay on hCB2R clone 3D8.3 (transfected CHO-K1 cells); format: cell-based; details: for IC50: cAMP, hCNR2 CHO-K1 3D8.3 clone, read-out: Assay 1 IC50
T1 construct: unnamed tag of the plasmid; expressed in transfected cells
Description: (§1) Compounds were evaluated for their CB2R agonist potency in the following assays:
Assay 1—cAMP Assay on hCB2R Clone 3D8.3:
Chinese hamster ovary cells (CHO)-K1 were transfected with hCB2R plasmid using Genejuice (Merck). After 48 h the cells were transferred into flasks in the presence of the antibiotic G418 and expanded (with continuous replenishment of the antibiotic). Two single-cell cloning rounds were then performed, followed by verification of the presence of the tag of the plasmid and confirming the receptor was functional in cAMP studies. For the screening of compounds: Briefly, hCNR2 CHO-K1 (3D8.3 clone) cells were plated in Optimem+1% FCS (30000 cells, 100 ul per well) in half-area 96-well plates (Corning 3885) and placed in an incubator 37° C. 5% CO2 overnight. Next day, the medium was aspirated and replaced with ‘antibody solution’ (22.5 ul) (provided concentrated, diluted 1 in 3 with ‘assay buffer’ provided). The freshly made compounds (at a ×4 final concentration) or solvent alone (1.2% DMSO) were added to the wells and incubated for 30 minutes in a 37° C. incubator 5% CO2. A mixture of: Lysis solution (38%), substrates (Emerald-II™ (10%) and Galacton-Star® (2%)) and enzyme donor-labeled cAMP (50%) was added to the wells and incubated in the dark for one hour at room temperature. 30 μl of detection reagent (enzyme acceptor, provided) was then added to the wells and incubated in the dark for 3 hours at room temperature. The luminescence was then read with a Perkin-Elmer luminometer.

hCNR2 (CB2R) = target: T2, hCNR2 (CB2R) (Homo sapiens, UniProt P34972); experiment: DiscoveRx cAMP Hunter Express GPCR assay (hCNR2 CHO-K1 cells); format: cell-based; details: for IC50: cAMP Hunter eXpress, hCNR2 CHO-K1 cells, read-out: Assay 2 IC50
T2 construct: host or cells: CHO-K1 (purchased recombinant cell line)
T2 sequence (P34972 whole entry): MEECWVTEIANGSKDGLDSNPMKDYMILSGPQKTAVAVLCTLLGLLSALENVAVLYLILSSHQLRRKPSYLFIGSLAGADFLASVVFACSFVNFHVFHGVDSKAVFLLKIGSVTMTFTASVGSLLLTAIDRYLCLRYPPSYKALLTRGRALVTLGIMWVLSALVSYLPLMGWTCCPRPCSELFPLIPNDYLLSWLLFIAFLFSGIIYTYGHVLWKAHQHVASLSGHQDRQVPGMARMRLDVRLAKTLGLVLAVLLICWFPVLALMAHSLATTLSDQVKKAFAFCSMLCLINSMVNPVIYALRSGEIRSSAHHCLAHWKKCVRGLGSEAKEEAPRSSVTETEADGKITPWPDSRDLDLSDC
Description: as §1
Assay 2—DiscoveRx cAMP Hunter Express GPCR Assay
The cAMP Hunter eXpress GPCR assay kit and cells used are from DiscoveRx Corporation (95-0040E2) using the manufacturer's protocol without the optional IBMX step. […] Briefly, hCNR2 CHO-K1 cells were plated in the provided medium (50 ul per well) in half-area 96-well plates (Corning 3885) and placed in an incubator 37° C. 5% CO2 overnight. Next day, the medium was aspirated and replaced with ‘antibody solution’ (22.5 ul) (provided concentrated, diluted 1 in 3 with ‘assay buffer’ provided). The freshly made compounds (at a ×4 final concentration) or solvent alone (1.2% DMSO) were added to the wells and incubated for 30 minutes in a 37° C. incubator 5% CO2. A mixture of lysis solution and two substrates (provided with the DiscoveRx kit) was added to the wells and incubated in the dark for one hour at room temperature. A detection reagent (provided) was then added to the wells and incubated in the dark for 3 hours at room temperature. The luminescence was then read with a Perkin-Elmer luminometer.

T1 sequence (P34972 whole entry): as above

SMILES | IC50 (hCB2R) [nM] | IC50 (hCNR2 (CB2R)) [nM] | Assay 1 activity at 3 μM (hCB2R; at 3 μM) [% activity at 3 μM] | Assay 2 decrease at 1 and 3 μM (hCNR2 (CB2R); at 1 and 3 μM)
O=[N+]([O-])c1ccccc1CSc1nnc2c(n1)[nH]c1cccc(Br)c12 [Example 9, 9-Bromo-3-((2′-nitrobenzyl)thio)-5H-[1,2,4]triazino[5,6-b]indole] | 280 | 37 |  | 
N#Cc1ccccc1CSc1nnc2c3ccccc3n(Cc3ccccc3[N+](=O)[O-])c2n1 [Example 10, 2′-(((5-(2″-Nitrobenzyl)-5H-[1,2,4]triazino[5,6-b]indol-3-yl)thio)methyl)benzonitrile] | 355 | 53 |  | 
O=[N+]([O-])c1ccc(CSc2nnc3c(n2)[nH]c2ccccc23)c([N+](=O)[O-])c1 [Example 11, 3-((2′,4′-Dinitrobenzyl)thio)-5H-[1,2,4]triazino[5,6-b]indole] | 3900 | 576 |  | 
O=[N+]([O-])c1cccc(F)c1CSc1nnc2c(n1)[nH]c1ccccc12 [Example 12, 3-((2′-Fluoro-6′-nitrobenzyl)thio)-5H-[1,2,4]triazino[5,6-b]indole] | 1900 | 539 |  | 
O=[N+]([O-])c1ccccc1CSc1nnc2c3ccccc3n(Cc3ccccc3F)c2n1 [Example 13] | 201 | 201 |  | 
CN(C)c1ccc(C(=O)n2c3ccccc3c3nnc(SCc4ccccc4C#N)nc32)cc1 [Example 16] |  |  | ~40 | 20% decrease at 1 and 3 μM
N#Cc1ccccc1CSc1nnc2c3ccccc3n(C(=O)c3ccc(OC(F)(F)F)cc3)c2n1 [Example 21, 2′-(((5-(4″-(Trifluoromethoxy)benzoyl)-5H-[1,2,4]triazino[5,6-b]indol-3-yl)thio)methyl)benzonitrile] | 111 | 73 |  | 

The next lines start with results.

IC50 (hCB2R) [nM] | IC50 (hCNR2 (CB2R)) [nM] | SMILES | Assay 1 activity at 3 μM (hCB2R; at 3 μM) [% activity at 3 μM] | Assay 2 decrease at 1 and 3 μM (hCNR2 (CB2R); at 1 and 3 μM)
12 | 32 | N#Cc1ccccc1CSc1nnc2c3ccccc3n(C(=O)C3CCCCC3)c2n1 [Example 18, 2′-(((5-(Cyclohexanecarbonyl)-5H-[1,2,4]triazino[5,6-b]indol-3-yl)thio)methyl)benzonitrile] |  | 
57 | 27 | N#Cc1ccccc1CSc1nnc2c3ccccc3n(C(=O)c3cccc(C(F)(F)F)c3)c2n1 [Example 19] |  | 
32 | 57 | N#Cc1ccccc1CSc1nnc2c3ccccc3n(C(=O)c3ccc(F)cc3)c2n1 [Example 20, 2′-(((5-(4″-Fluorobenzoyl)-5H-[1,2,4]triazino[5,6-b]indol-3-yl)thio)methyl)benzonitrile] |  | 
14 | 49 | N#Cc1ccccc1CSc1nnc2c3ccccc3n(C(=O)C3CCCC3)c2n1 [Example 22, 2′-(((5-(Cyclopentanecarbonyl)-5H-[1,2,4]triazino[5,6-b]indol-3-yl)thio)methyl)benzonitrile] |  | 
31 | 46 | N#Cc1ccccc1CSc1nnc2c3ccccc3n(C(=O)c3ccco3)c2n1 [Example 23, 2′-(((5-(Furan-2″-carbonyl)-5H-[1,2,4]triazino[5,6-b]indol-3-yl)thio)methyl)benzonitrile] |  | 
14 | 19 | N#Cc1ccccc1CSc1nnc2c3ccccc3n(C(=O)c3ccno3)c2n1 [Example 24, 2′-(((5-(Isoxazole-5″-carbonyl)-5H-[1,2,4]triazino[5,6-b]indol-3-yl)thio)methyl)benzonitrile] |  | 
38 | 113 | N#Cc1ccccc1CSc1nnc2c3ccccc3n(C(=O)c3ccccc3)c2n1 [Example 25] |  | 
43 | 48 | COC(=O)CCC(=O)n1c2ccccc2c2nnc(SCc3ccccc3C#N)nc21 [Example 26, methyl 4″-(3-((2′-cyanobenzyl)thio)-5H-[1,2,4]triazino[5,6-b]indol-5-yl)-4″-oxobutanoate] |  | 
45 | 42 | COC(=O)CCCC(=O)n1c2ccccc2c2nnc(SCc3ccccc3C#N)nc21 [Example 27, methyl 5″-(3-((2′-cyanobenzyl)thio)-5H-[1,2,4]triazino[5,6-b]indol-5-yl)-5″-oxopentanoate] |  | 
95 | 95 | CCCCSc1nnc2c(n1)[nH]c1ccccc12 [Example 28, 3-(butylthio)-5H-[1,2,4]triazino[5,6-b]indole] |  | 
